Data set [1] deals with A549 cancer cells. The conditions noted are these: A549, 1.25 μM.
Description: All cells were selectively stained for visualization of ROS accentuation (green, CM-H2DCFDA), mitochondria (red, Mitotracker Red), and nuclei (blue, Hoechst).
Cells were then incubated with 1.25 μM complex at 37° C. 4 h. Post incubation, the media was removed and cells were washed (2×) with PBS. Cells were then incubated with 1 μM CM-H2DCFDA (Lifetech C6827) in PBS at 37° C. for 15 min. The dye-PBS solution was removed and cells were washed with PBS (2×). To the cells was added a PBS solution containing 1 ug/mL Hoechst 33342 (Lifetech H1399) and 50 nM Mitotracker Red FM (Lifetech M22425) for 30 min at 37° C. After incubation, the dye-PBS solution was removed and cells were washed with PBS (2×). Cells were then imaged fluorescently on a Leica SP5 X White light laser confocal microscope. Images were taken with a 63×, NA 1.4 objective.
In data set [2] the test system is fetal bovine serum proteins. As to the method:
To assess potential drug protein interactions, samples of fetal bovine serum (FBS) were treated with 25 μM 1, 3, and auranofin prior to incubating at 37° C. Aliquots were taken and the free Au (non-protein bound, methanolic extracts) content was analyzed by ICP-MS (FIG. 3B).
A 25 μM solution of each compound in 3 mL warm FBS was made. The solutions were kept at 37° C. Over time, 100 μL aliquots of each solution were taken and precipitated into 400 μL cold methanol. Precipitated aliquots were stored at −80° C. The methanolic suspensions were then centrifuged at 11,000 rcf for 5 min in an Edvotek microcentrifuge. The supernatants were pipetted into new microcentrifuge tubes. Samples were prepared for ICP-MS by adding 200 μL supernatant from each sample to 2 mL 3% Trace Metal Grade HCl. Time points were at addition of compound (T0), 4, 6.25, 9.75, 12, 24, 48, 72, and 100 h.

Data set [3] concerns A549 cells. Nature of the data set: Detection of intracellular ROS by flow cytometry (CM-H2DCFDA). Particulars: A549, 2.5 μM, 6 h incubation. It is filed as cell-based, human. Here is the method:
To establish whether or not the complexes of this disclosure would increase intracellular ROS levels, A549 cells were treated with each complex in a dose responsive manner.
Tumor cells (1×10^6) were plated in a 6-well plate overnight and then incubated with media containing various complexes described at concentrations of 0.625-2.5 μM. Control cells were treated with vehicle only. After a 6 h. incubation, the cells were washed with PBS, detached with 0.250 mL 1× trypsin, collected in a 15 mL conical tube, and pelleted by centrifugation (3 min @ 300 g) at 5° C. The resulting pellet was again washed 2× with cold PBS and pelleted at 5° C. […] The cells were then pelleted, washed with 2 mL PBS, and re-suspended in PBS containing 2 μg/mL propidium iodide (PI, Chemodex P0023) for a final cell concentration of 0.5×10^6 cells/mL. Control samples of unstained cells, cells stained with only CM-H2DCFDA, and cells stained with only PI were also prepared. Each sample was added to one well of a 96-well plate. Samples were then subjected to FACS analysis using a Millipore Guava easyCyte 8 and analyzed using the Guava inCyte software.
For orientation: Flow cytometry measures light scatter and fluorescence of single cells or particles in a stream.

Data set [4] concerns 2780CP ovarian (multi-drug resistant). Nature of the data set: Cell proliferation (MTT) assay in 2780CP ovarian cells. It is filed as cell-based. The conditions noted are these: Table 3; error is standard error of the mean. As to the method:
(§1) Further anti-proliferation studies were carried out with complex 1 and its naphthoquinone component 4[H][Cl] using the following cell lines: A2780 ovarian (a wt-p53 cell line sensitive to platinum treatment), 2780CP ovarian (isogenic to A2780 but expressing multi-drug resistance (MDR)), and PC-3 prostate (p53 null) (Table 3).
(§2) Cells were harvested and seeded into 96-well culture plates (Costar 07-200-90) in 100 μL of culture media. They were allowed to incubate overnight at 37° C. in the presence of 5% CO2. A549 was seeded at a density of 1000 cells/well, A2780 at 2500 cells/well, A2780CP at 3000 cells/well, and PC-3 at 2000 cells/well. The next day, appropriate serial dilutions of drug stocks in culture media were made. To each well of a 96 well plate was added 100 μL of the appropriate solution. After a total of three days, a […] aliquot of 3 mg/mL tetrazolium dye, 344,5-dimethylthiazol-2-yl)-2,5-diphenyltetrazolium bromide (Alfa Aesar L11939) was added to each well, followed by a 4 hr incubation period at 37° C. The medium was then removed, the resulting formazan was dissolved in […] DMSO and the respective absorbances were measured at 560-650 nm using a microplate reader (Molecular Devices, Sunnyvale, Calif.). Absorbance values were corrected for background and then normalized to wells containing untreated cells to allow for plate-to-plate comparisons. […]

Data set [5] concerns A549 cells. The conditions noted are these: A549, 24 h.
Description: Control cells were treated with vehicle only. At 24 h, the media was collected and the cells were washed with PBS. The PBS washing was collected and the attached cells were then subjected to 0.5× trypsin (diluted with PBS) for 2 min. All media and washings were collected, pelleted by centrifugation (3 min @ 300 g) and washed twice with cold PBS. […] After this, 100 μL of cell suspension was added to 1.5 mL centrifuge tubes, followed by 5 μL each of Annexin V-FITC and propidium iodide (PI, 50 μg/mL) solution. Control samples of unstained cells, cells stained with only Annexin V-FITC, and cells stained with only PI were also prepared. Samples were allowed to incubate in the dark for 15 min at ambient temperature. After incubation, each sample was diluted with 200 μL of Annexin V binding buffer, and the resulting 300 μL sample was added to one well of a 96-well plate. Samples were then subjected to FACS analysis using a Millipore Guava easyCyte 8 and analyzed using Guava inCyte software.
The test system of data set [6] is A549 lung cancer cell xenografts in zebrafish. Particulars: 0.5 μM, bright field images. Here is the method: First, zebrafish embryos were divided into 7 groups at an average of 65 embryos per group. […] Briefly, live human lung cancer cells (A549) were labeled with CM-DiI (red) and only live cells were transplanted via injection into the perivitelline space of 30 zebrafish embryos 24 hours post fertilization (hpf) (Sittaramane et al., 2015; Veinotte et al., 2014; Xie et al., 2015). Tumor inoculated zebrafish embryos were allowed to grow for one day till 48 hpf. This allows for establishment of the cancer cells in the host zebrafish embryos.

Data set [7] deals with PC-3 prostate (p53 null). Nature of the data set: Cell proliferation (MTT) assay in PC-3 prostate cells. It is filed as cell-based. Particulars: Table 3; error is standard error of the mean. As to the method: as §1, §2
Data set [8] deals with A549 lung cancer cells. As to the kind of experiment: Cell proliferation (MTT) assay in A549 lung cancer cells. It is filed as cell-based, human. As to the method:
Cells were harvested and seeded into 96-well culture plates (Costar 07-200-90) in 100 μL of culture media. They were allowed to incubate overnight at 37° C. in the presence of 5% CO2. A549 was seeded at a density of 1000 cells/well, A2780 at 2500 cells/well, A2780CP at 3000 cells/well, and PC-3 at 2000 cells/well. The next day, appropriate serial dilutions of drug stocks in culture media were made. To each well of a 96 well plate was added 100 μL of the appropriate solution. After a total of three days, a […] aliquot of 3 mg/mL tetrazolium dye, 344,5-dimethylthiazol-2-yl)-2,5-diphenyltetrazolium bromide (Alfa Aesar L11939) was added to each well, followed by a 4 hr incubation period at 37° C. The medium was then removed, the resulting formazan was dissolved in […] DMSO and the respective absorbances were measured at 560-650 nm using a microplate reader (Molecular Devices, Sunnyvale, Calif.). Absorbance values were corrected for background and then normalized to wells containing untreated cells to allow for plate-to-plate comparisons. The data are shown as mean inhibition of proliferation or growth as a percentage of control cells and are from 2-3 replicate experiments. Resulting dose response curves were subjected to linear regression analysis (Origin by OriginLab, Inc.) for determination of IC50 values.

Data set [9] has as its system thioredoxin reductase (TrxR) in A549 cells. Nature of the data set: Lipoate reduction assay of thioredoxin reductase activity in live cells. It is filed as cell-based, human. Here is the method:
To assess whether any or all of the present gold complexes could serve as TrxR inhibitors, standard tests involving the reduction of the oxidized form of the cell-permeable cofactor lipoate to its corresponding reduced form, dihydrolipoate, were carried out. […] [Cl] and 5 (cocktail), auranofin, and doxorubicin for 6 h. Post treatment, the live cells were monitored colorimetrically over 180 min for their ability to reduce lipoate (FIG. 5A).
Cells were harvested and seeded at a density of 10,000 cells/well A549 in 96-well culture plates. They were then incubated overnight at 37° C. and 5% CO2. The next day, appropriate serial dilutions of drug stock in culture media were performed, and 100 μL of the appropriate solution were added to each well. Cells were returned to the incubator for 6 h. Afterwards, the liquid was then removed from each well by vacuum aspiration and replaced by 100 μL of 5 mM lipoate (Tokyo Chemical Industry Co., Ltd. L0207) and 1 mM DTNB (Acros Organics 117540050) in HBSS (Life tech 14025-092). The absorbance of each well at […] was recorded immediately and once every 20 min for three h on a microplate reader (Molecular Devices, Sunnyvale, Calif.). Plates were covered with aluminum foil between readings.

Read-outs that look alike come from different tables or passages of the source.

The IC50 is the midpoint of a concentration-inhibition curve. `Cc1cc(C)c(-n2c3c([n+](-c4c(C)cc(C)cc4C)[c]2[Au-][c]2n(-c4c(C)cc(C)cc4C)c4c([n+]2-c2c(C)cc(C)cc2C)C(=O)c2ccccc2C4=O)C(=O)c2ccccc2C3=O)c(C)c1.[Cl][Ag-][Cl]` [Compound 1, [Bis(1,3-dimesityl-4,5-naphthoquino-imidazol-2-ylidene)-gold(I)] [Silver(I)dichloride]]: in data set [1], the “subcellular loci of ROS accentuation” value was “ROS accentuation is arising from mitochondria”. The “free Au (non-protein bound) content as a function of time” value in data set [2] is “minimal changes in the free Au levels”. Further, the “fluorescence associated cell population shift (intracellular ROS increase)” value in [3] is 27 fold. Moreover, the concentration for half-maximal inhibition (IC50) in [4] worked out at 54 ± 6 nM; in data set [7], 96 ± 17 nM; in data set [8] (A549 lung cancer cells, MTT, 72 h, read-out: IC50) it was 73 ± 16 nM; in data set [8] (Table 3, error is standard error of the mean, read-out: IC50 A549 Lung) it was 73 ± 16 nM. Further, the “induction of apoptosis (annexin-V/PI)” value in data set [5] is “induces controlled cell death via an apoptotic mechanism”. Moreover, the “non-specific cell death in the developing zebrafish larvae” value in [6] is recorded as “no non-specific cell death”. In data set [8] (A549 IC50 relative to complex 1), the “Fold Difference relative to 1” value stood at 1. Further, in data set [9] (A549, in words), the “TrxR activity by lipoate reduction, time and dose dependence” value was “time (FIG. 12A) and dose (FIG. 12B) dependent inhibition of enzyme activity”. In data set [9] (A549, low concentrations (0.1-0.6 μM), 6 h), the “inhibition of TrxR (lipoate reduction)” value is “inhibition of TrxR was apparent”.

The values are drawn from US11332483B2, “Naphthoquinone containing gold carbene complexes and methods of uses thereof” (BOARD OF REGENTS, THE UNIVERSITY OF TEXAS SYSTEM, priority 2017, dated 2022).
